The text below walks through data of ChEMBL document CHEMBL2034941, “Toward Overcoming Staphylococcus aureus Aminoglycoside Resistance Mechanisms with a Functionally Designed Neomycin Analogue” (2011).

Holding throughout (assay type): functional
Assay [1] relates to Staphylococcus aureus. The assay is described as follows: Antimicrobial activity against Staphylococcus aureus harboring ANT(4')-1 enzyme.
For assay [2], the system named is Staphylococcus aureus. The assay is described as follows: Antimicrobial activity against Staphylococcus aureus ATCC 29213.
The test system of assay [3] is Staphylococcus aureus. The assay can be described thus: Antimicrobial activity against Staphylococcus aureus harboring APH(3'/5'''')-3 enzyme.
Assay [4] concerns Staphylococcus aureus. The assay is described as follows: Antimicrobial activity against Staphylococcus aureus harboring APH(2'''') and AAC(6') enzymes.
Assay [5] has as its system Staphylococcus aureus. The assay is described as follows: Antimicrobial activity against methicillin-resistant Staphylococcus aureus clinical isolate.
The subject of assay [6] is Staphylococcus aureus. The assay is described as follows: Ratio of amikacin MIC50 to compound MIC50 for methicillin-resistant Staphylococcus aureus clinical isolate.
The subject of assay [7] is Staphylococcus aureus. The assay is described as follows: Ratio of amikacin MIC90 to compound MIC90 for methicillin-resistant Staphylococcus aureus clinical isolate.

In brackets after ≈: the same amount, converted by molar mass.

For orientation: MIC means the lowest concentration that inhibits growth of the organism. A higher MIC goes with weaker potency. With `NCC[C@H](O)C(=O)N[C@@H]1C[C@H](N)[C@@H](O[C@H]2O[C@H](CO)[C@@H](O)[C@H](O)[C@H]2N)[C@H](O[C@@H]2O[C@H](CO)[C@@H](O[C@H]3O[C@@H](CN)[C@@H](O)[C@H](O)[C@H]3N)[C@H]2O)[C@H]1O`, the MIC was more than 64 µg/mL with Staphylococcus aureus [1], 2 µg/mL (≈ 2.79 µM) against Staphylococcus aureus [2], 32 µg/mL (≈ 44.6 µM) in the assay on Staphylococcus aureus [3] and more than 32 µg/mL in the assay on Staphylococcus aureus [4].

In the case of `NC[C@H]1CC[C@@H](N)[C@@H](O[C@H]2[C@@H](O)[C@H](O[C@@H]3[C@@H](O)[C@H](N)C[C@H](N)[C@H]3O[C@H]3O[C@H](CO)CC[C@H]3N)O[C@@H]2CO)O1`, the figures for the MIC against Staphylococcus aureus [1], in the assay on Staphylococcus aureus [2] and against Staphylococcus aureus [4] were 4 µg/mL (≈ 7.25 µM), 2 µg/mL (≈ 3.63 µM) and more than 32 µg/mL, respectively.

`NCC[C@H](O)C(=O)N[C@@H]1C[C@H](N)[C@@H](O[C@H]2O[C@H](CO)CC[C@H]2N)[C@H](O[C@@H]2O[C@H](CO)[C@@H](O[C@H]3O[C@@H](CN)CC[C@H]3N)[C@H]2O)[C@H]1O`: the MIC against Staphylococcus aureus [1] was 8 µg/mL (≈ 12.3 µM); in the assay on Staphylococcus aureus [2], 1 µg/mL (≈ 1.53 µM); against Staphylococcus aureus [4], 16 µg/mL (≈ 24.5 µM).

For the molecule `NC[C@@H]1CC[C@@H](N)[C@@H](O[C@H]2[C@H](O[C@@H]3O[C@H](CO)[C@@H](O[C@H]4O[C@@H](CN)CC[C@H]4N)[C@H]3O)[C@@H](O)[C@H](N)C[C@@H]2N)O1`, the MIC in the assay with Staphylococcus aureus [1] is 0.5 µg/mL (≈ 0.908 µM); against Staphylococcus aureus [2], 0.5 µg/mL (≈ 0.908 µM); against Staphylococcus aureus [3] it was 32 µg/mL (≈ 58.1 µM); in the assay on Staphylococcus aureus [4], more than 64 µg/mL.

As usually defined, the MIC50 is the lowest concentration that inhibits either 50% of growth or 50% of the strains tested, depending on the study. Read a high MIC50 as lower susceptibility. A word on the MIC90: it is the lowest concentration that inhibits either 90% of growth or 90% of the strains tested, depending on the study. The low end stands for higher susceptibility, the high end for lower susceptibility. `NCC[C@H](O)C(=O)N[C@@H]1C[C@H](N)[C@@H](O[C@H]2O[C@H](CN)CC[C@H]2N)[C@H](O[C@@H]2O[C@H](CO)[C@@H](O[C@H]3O[C@@H](CN)CC[C@H]3N)[C@H]2O)[C@H]1O`: in the assay with Staphylococcus aureus [5], the MIC50 came out at 0.25 µg/mL (≈ 0.384 µM). The molecule also registered an MIC90 in the assay on Staphylococcus aureus [5] of 0.5 µg/mL (≈ 0.767 µM). The MIC turned out to be 1 µg/mL (≈ 1.53 µM) against Staphylococcus aureus [1], 0.5 µg/mL (≈ 0.767 µM) in the assay with Staphylococcus aureus [2], 1 µg/mL (≈ 1.53 µM) against Staphylococcus aureus [3] and 2 µg/mL (≈ 3.07 µM) with Staphylococcus aureus [4]. In addition, the Ratio with Staphylococcus aureus [6] and in the assay on Staphylococcus aureus [7] was more than 64 each time.

As to `NCC[C@H](O)C(=O)N[C@@H]1C[C@H](N)[C@@H](O[C@H]2O[C@H](CN)[C@@H](O)[C@H](O)[C@H]2O)[C@H](O)[C@H]1O[C@H]1O[C@H](CO)[C@@H](O)[C@H](N)[C@H]1O` [AMIKACIN], the MIC50 with Staphylococcus aureus [5] is 32 µg/mL (≈ 54.6 µM). Also, the MIC90 in the assay with Staphylococcus aureus [5] was more than 64 µg/mL. Further, the MIC with Staphylococcus aureus [1] is 64 µg/mL (≈ 109 µM); against Staphylococcus aureus [2], 4 µg/mL (≈ 6.83 µM); against Staphylococcus aureus [3], 8 µg/mL (≈ 13.7 µM); against Staphylococcus aureus [4], 64 µg/mL (≈ 109 µM).

For `NC[C@@H]1O[C@H](O[C@H]2[C@@H](O)[C@H](O[C@@H]3[C@@H](O)[C@H](N)C[C@H](N)[C@H]3O[C@H]3O[C@H](CN)[C@@H](O)[C@H](O)[C@H]3N)O[C@@H]2CO)[C@H](N)[C@@H](O)[C@@H]1O` [FRAMYCETIN], the MIC is more than 64 µg/mL against Staphylococcus aureus [1], 0.5 µg/mL (≈ 0.813 µM) in the assay on Staphylococcus aureus [2], more than 64 µg/mL in the assay on Staphylococcus aureus [3] and more than 64 µg/mL in the assay on Staphylococcus aureus [4].

Molecule `CN[C@@H]1[C@@H](O)[C@@H](O[C@@H]2[C@@H](O)[C@H](O[C@H]3O[C@H]([C@@H](C)NC)CC[C@H]3N)[C@@H](N)C[C@H]2N)OC[C@]1(C)O` [GENTAMICIN C1] yielded an MIC50 in the assay with Staphylococcus aureus [5] of more than 32 µg/mL. This molecule yielded an MIC90 with Staphylococcus aureus [5] of more than 32 µg/mL. In addition, the MIC with Staphylococcus aureus [1] is 0.5 µg/mL (≈ 1.05 µM); against Staphylococcus aureus [2], 0.5 µg/mL (≈ 1.05 µM); in the assay on Staphylococcus aureus [3] it was 0.5 µg/mL (≈ 1.05 µM); in the assay with Staphylococcus aureus [4] it was more than 64 µg/mL.

Regarding `NC[C@@H]1O[C@H](O[C@H]2[C@@H](O)[C@H](O[C@@H]3[C@@H](O)[C@H](N)C[C@H](N)[C@H]3O[C@H]3O[C@H](CO)[C@@H](O)[C@H](O)[C@H]3N)O[C@@H]2CO)[C@H](N)[C@@H](O)[C@@H]1O` [PAROMOMYCIN], the MIC is more than 64 µg/mL in the assay with Staphylococcus aureus [1], 2 µg/mL (≈ 3.25 µM) with Staphylococcus aureus [2], more than 64 µg/mL in the assay on Staphylococcus aureus [3] and more than 64 µg/mL against Staphylococcus aureus [4].

Consider `NC[C@H]1O[C@H](O[C@H]2[C@H](O[C@@H]3O[C@H](CO)[C@@H](O)[C@H]3O)[C@@H](O)[C@H](N)C[C@@H]2N)[C@H](N)[C@@H](O)[C@@H]1O` [RIBOSTAMYCIN], for which the MIC against Staphylococcus aureus [1] was more than 64 µg/mL; in the assay with Staphylococcus aureus [2], 8 µg/mL (≈ 17.6 µM); in the assay with Staphylococcus aureus [3], more than 64 µg/mL; in the assay with Staphylococcus aureus [4] it was more than 64 µg/mL.

For butirosin, the MIC against Staphylococcus aureus [1] is more than 32 µg/mL; in the assay on Staphylococcus aureus [2], 8 µg/mL; in the assay with Staphylococcus aureus [3] it was more than 32 µg/mL; in the assay with Staphylococcus aureus [4] it was more than 32 µg/mL.
